From a melting point compilation (Tetko et al.; mined from patent text by program, amines drawn as free bases though some values may be those of a salt) come the findings set out here.

Usually melting point stands for the temperature of the solid-liquid transition. The compound `CCCCC1(N(C)C)CCC(c2[nH]c3ccccc3c2Cc2ccccc2)CC1` (configuration not stated) had a melting point of 72 to 78 °C.
As for `O=C(Nc1cnc2c(c1)nc1n2CCC1O)c1cc2cc(C(F)(F)F)cnc2n1Cc1cccc(F)c1` (single isomer, unassigned; (-)), the figure is 279 to 280 °C; as for `CCCc1cc(Cl)c2oc(-c3ccccc3)c(C)c2c1OC(C)=O`, 86 to 87 °C.
As for `CC(C)(C)OC(=O)NCCNCCNC(=O)OC(C)(C)C`, the figure is 69 to 71 °C; as for `N#C[C@@H](Cc1ccccc1)Oc1c(Br)cc(-c2c3ccccc3c(Br)c3sc4ccccc4c23)cc1Br`, 160 to 165 °C; as for `Cc1ccccc1OS(=O)(=O)c1ccc(N2CCN(C)C2=O)cc1`, 157 to 158 °C.
In the case of `CCCOc1ccc(S(=O)(=O)NCC2(NCC)CCCCCC2)cc1-c1nc2c([nH]1)c1nncn1c(=O)n2CCC`, the melting point came to 203 °C.
To `COC(=O)c1sccc1NC(C)=O` belongs 93 to 95 °C.
`CCCn1c(=O)c2[nH]c(/C=C/c3ccccc3F)nc2n(CCC)c1=O` had a melting point of 259 °C.
As for `Cc1ccccc1-c1cnc2c(C(F)(F)F)cccc2c1-c1cccc(NC(=O)Nc2ccccc2)c1`, the figure is 192 to 195 °C; as for `CCOC(=O)c1nc2cc(-c3ccccc3)sc2nc1N`, 173 to 175 °C.
Turning to `CCc1cc(=O)c2cc(CCO)ccc2o1`, the melting point is 75 to 76 °C.
As for `NC(=O)c1cnn2cccc2c1NC1CCCCCC1`, the figure is 279 °C; as for `O=C(c1ccc(Nc2ccncc2)cc1)N1CCCCC1`, 170 to 172 °C; as for `COc1cccc(C=N[C@H](C)c2ccc([N+](=O)[O-])cc2)c1O`, 88 to 90 °C.
In the case of `Clc1ccc2nc(-c3ccccc3)cc(CCC3CCCNC3)c2c1` (configuration not stated), the melting point was above 260 °C.
Turning to `COc1ccc(-c2nc(-c3c[nH]c4ccccc34)[nH]c2-c2ccc(OC)cc2)cc1`, the melting point stood at 246 °C.
As for `CCCCN(C)CCc1ccc(Nc2ncc3c(n2)-c2ccccc2[C@H](c2ccc(F)cc2)C3)cc1`, the figure is 164 to 166 °C; as for `CCO[C@@H]1c2ccc3c(nc(C)n3C)c2O[C@H](c2ccccc2)[C@H]1O`, 222 °C; as for `CS(=O)(=O)c1ccc(-n2nc(C(=O)O)cc2-c2ccc(-c3ccco3)cc2)cc1`, above 280 °C.
`COc1ccc(C=Nc2ccc(SC)cc2)cc1`: the melting point lay within 183 to 184 °C.
As to `CCCCCCCNC(=O)Nc1cccc(-c2ccc(C=C(OC)C(=O)O)cc2OCCCC)c1`, the melting point came to 137 °C.
For the compound `Cc1nc(-c2ccc(C(=O)N3CCN(S(=O)(=O)c4ccc5cc(Br)ccc5c4)CC3)cc2)c[nH]1`, the melting point was 215 to 216 °C.
Take `Cn1nc(C(=O)O)cc1OCCCN1CCN(c2cccc3sccc23)CC1`: the melting point is 114 to 118 °C.
To `Oc1ccc2c(-c3ccc4c(O)cccc4c3)noc2c1` belongs 275 to 277 °C; to `O=C(O)C=C1SC(=Nc2cccc3ccccc23)N(c2cccc3ccccc23)C1=O`, 250 to 253 °C; to `CC(C)CC(NC(=O)C(Cc1c[nH]cn1)NC(=O)C(CC(=O)NCCc1ccccc1)Cc1cccc2ccccc12)C(O)CNCc1ccccc1` (mixture of isomers), 108 to 113 °C.
Compound `Nc1c([N+](=O)[O-])cc(O)cc1[N+](=O)[O-]` returned a melting point of 230 °C.
`COc1ccc(COc2cccc(C=C(C=O)C(C=O)=Cc3cccc(OCc4ccc(OC)cc4)c3)c2)cc1` displayed a melting point of 117 to 119 °C.
`COC(=O)NC1=NCC(c2ccccc2C)N1C` (configuration not stated) yielded a melting point of 158 to 161 °C.
Compound `OC1COC(O)C(F)(F)C1O` (configuration not stated) came in with a melting point of 146 to 148 °C.
`CC(C)CCc1sc(NC(=O)c2cc([N+](=O)[O-])cn2C)nc1C(=O)O` yielded a melting point of 296 to 300 °C.
As for `Cc1ccc(-n2nc(C(C)(C)C)cc2NC(=O)Nc2ccc(-c3cnc4c(c3)NC(=O)CO4)c3ccccc23)cc1`, the figure is above 200 °C; as for `CCNc1nc(=S)n(CC)c2nc(C3CC3)[nH]c12`, 265 °C; as for `NS(=O)(=O)c1c(Cl)sc(Cl)c1Br`, 113 to 117 °C.
As for `CC(C(=O)O)c1ccc([N+](=O)[O-])c(F)c1` (configuration not stated), the figure is 74 to 77 °C; as for `O=C(Nc1c(Cl)cc(-c2n[nH]c(=O)o2)c2c1OCCO2)OCc1ccccc1`, 230 °C; as for `CC(C(=O)O)c1ccc(-n2cc(Br)cn2)cc1` (configuration not stated), 154 to 155 °C.
`CCOC(=O)c1nccn1Cc1ccc(Cl)cc1N` yielded a melting point of 94 to 96 °C.
Regarding `Oc1ccc(-c2noc(C3(C(O)(C4CC4)C4CC4)CC3)c2-c2ccccc2)cc1`, the melting point lay within 169 to 170 °C.
In turn, `O=C1CC2(c3ccccc3)CCCC2C(=O)N1Cc1ccccc1` (configuration not stated) yielded a melting point of 77 to 79 °C.
Compound `O=C1CCC(N2C(=O)c3ccccc3C2=O)c2ccsc21` (configuration not stated) registered a melting point of 163 to 166 °C.
As for `CC(C)c1n[nH]c2c(O)ncnc12`, the figure is 302 to 304 °C; as for `CCOC(=O)c1nnc2ccc(N3C(=O)C=CC3=O)cc2c1O`, 257 to 260 °C; as for `CCn1c(=O)c(CC(=O)O)cc2ccc(O)cc21`, 226 to 229 °C.
To `Cc1cc(=O)[nH]c(SCc2ccc(Br)cc2N(C)C)n1` belongs 163 to 164 °C.
To `OC(c1ccccc1Cl)C(c1ccccc1Cl)n1ccnc1` (configuration not stated) belongs 62 to 68 °C.
The compound `CC(C)C(NC(=O)Cn1cccc(NC(=O)Nc2ccccc2)c1=O)C(=O)C(F)(F)F` (configuration not stated) registered a melting point of 94 to 106 °C.
As for `O=C(Oc1cccc(F)c1)c1ccc(F)cc1`, the figure is 43.5 to 45.2 °C; as for `CC(=O)NC[C@H]1CN(c2ccc(-c3nc(Cn4cccn4)cs3)c(F)c2)C(=O)O1`, 178 to 180 °C; as for `FC(F)Oc1ccc(CN(C(=Nc2ccccc2)N(Cc2ccc(OC(F)F)cc2)C2CCCC2)C2CCCC2)cc1`, 86.5 to 88 °C.
Consider `CCOC(=O)C(O)=Cc1nccc(OCc2ccccc2)n1`, for which the melting point fell in the range of 124 to 126 °C.
With `CC1(CN2CCN(c3cccc4c3OCCO4)CC2)N=C(c2ccccc2)NC1=O` (configuration not stated), the melting point was 80 to 85 °C.
The compound `CSc1ccc(-c2cc3ncnc(Nc4ccc5[nH]ccc5c4)c3s2)cc1` showed a melting point of 163 to 178 °C.
Take `CCc1c(C(C)C)nc(C(C)C)c(CO)c1-c1ccc(F)cc1`: the melting point lay within 126 to 129 °C.
To `CC(=O)c1c(C)nn2ccccc12` belongs 85.2 to 88.1 °C; to `CN1CCCCC1CCc1ccccc1NC(=O)c1ccc(N)cc1` (configuration not stated), 147 to 148 °C.
Compound `CNC(=S)NCCCSCc1c[nH]cn1` had a melting point of 118 to 120 °C.
In turn, `COCCC1(C(=O)N[C@@H](Cc2ccc(NC(=O)c3cc(C#N)ccc3Cl)cc2)C(=O)O)CCCC1` returned a melting point of 169 to 172 °C.
As for `CC(C)CCCC(C)C1CCC2C3CC=C4CC(OC(=O)C(C)(C)COP(=O)(O)OCCBr)CCC4(C)C3CCC12C` (configuration not stated), the figure is 98 °C; as for `CCOC(=O)c1c(-c2ccccc2)c(-c2ccc(F)cc2)cn1C(C)C`, 104 to 105 °C; as for `CCCC(=O)C(=O)C(CC1CCCCC1)NC(=O)C(CC(C)C)NC(=O)C(Cc1ccccc1)NC(=O)OC(C)(C)C` (configuration not stated), 87 to 92 °C.
`Cc1c(C(=O)O)c(=O)c(Br)c(-c2ccccc2)n1C` displayed a melting point of 257 to 258 °C.
Turning to `c1ccc2c(c1)-c1ccccc1C2CC1c2ccccc2-c2ccccc21`, the melting point lay in the range of 210 to 212 °C.
To `N#Cc1c(Cl)[nH]c(-c2ccc(Cl)c(Cl)c2)c1Cl` belongs above 200 °C.
To `NCC(O)CN1CCC(C2(c3ccc(F)cc3)OCCO2)CC1` (configuration not stated) belongs 132 to 136 °C; to `CCn1c(C(=O)OC)c(-c2ccc(OC)c(OC)c2)c2cc(OC)c(OC)cc21`, 191 to 192 °C; to `Cn1cc(-c2c(-c3ccc(F)cc3)nn3ccncc23)ccc1=O`, 222 to 223 °C.
To `CC(C)N1Cc2c(Cl)nc(Cl)nc2C1=O` belongs 122 to 123 °C; to `CCCn1cnc2ncnn2c1=S`, 168 to 169 °C; to `O=C(CC1CCN(CC2CC2)CC1)c1ccc(O)cc1`, 209 to 211 °C.
Compound `CC(C)C(NC(=O)c1ccc(Cl)cc1)NC(=NC#N)Nc1cccnc1` (configuration not stated) returned a melting point of 182 to 184 °C.
As for `CCCCCCCOC1CCC(=O)N1` (configuration not stated), the figure is 52 to 54 °C; as for `COc1ccc2[nH]c(SCc3ncc(C)c(N(C)C)c3Cl)nc2c1`, 109 to 110 °C.
Compound `Oc1ccc2c(c1)CCCC2Cc1c[nH]cn1` (configuration not stated) registered a melting point of 200 to 205 °C.
`COc1ccc(N2C(=O)N(c3cccc(C(N)=O)c3)c3nc(Nc4cccc(CCN5CCN(C)CC5)c4)ncc3C2C)cc1` (configuration not stated): the melting point lay within 243 to 251 °C.
To `CN1CCC(N(C)S(=O)(=O)c2ccc(Nc3nccc(Nc4ccc(F)c(F)c4)n3)cc2)CC1` belongs 181 to 183 °C; to `O=C1c2ccccc2C(=O)c2sc(-c3ccccc3F)nc21`, above 260 °C; to `CCCc1c(OCCCOc2ccc(O)cc2)ccc2c1OC(CCC(=O)O)(CCC(=O)O)CC2=O`, 160 to 166 °C.
As for `Cc1c(-c2ccc([N+](=O)[O-])cc2)sc2c1c(=O)c(OC(C)C)cn2Cc1c(F)cccc1F`, the figure is 188 to 189 °C.
To `Cc1nc(-c2ccc(Cl)cc2)n(-c2ccc(S(C)(=O)=O)cc2)n1` belongs 184 to 185 °C.
Take `COc1c(C)c(C)c(OC)c(C(O)(c2ccccn2)C(C)C)c1C` (configuration not stated): the melting point fell in the range of 99 to 100 °C.
As for `N#CCN1C(=O)C2(COc3cc4c(cc32)OCCO4)c2ccccc21` (configuration not stated), the figure is 161 to 162 °C; as for `CN1CCN(C(=O)C2CCC(Nc3ncc4ncnc(Nc5ccc(F)c(Cl)c5)c4n3)CC2)CC1` (configuration not stated), 194 to 197 °C; as for `COC(=O)Cc1ccc(OCc2ccc3ccccc3n2)c(Br)c1`, 90 °C.
In the case of `CC(C)(C)OC(=O)NCCNC(=O)c1ncccc1N`, the melting point fell in the range of 103 to 105 °C.
As to `O=C(NC(Cc1ccccc1)C(=O)O)OCc1ccc(COc2ccc(F)cc2)cc1` (configuration not stated), the melting point lay in the range of 112 to 113 °C.
